Paper PMC8224742, “Evaluation of 1β-Hydroxylation of Deoxycholic Acid as a Non-Invasive Urinary Biomarker of CYP3A Activity in the Assessment of Inhibition-Based Drug–Drug Interaction in Healthy Volunteers” (Journal of Personalized Medicine, 2021)
“Also recorded” adds a separate entry of the source. Read-outs that look alike come from different tables or passages of the source. Marks after values point to notes of the source that are not given here.

What was measured:
CYP3A [1] = settings: human, in vivo
Description: (§1) ITZ tablets (200 mg) were split equally in two, and 100 mg were given to subjects.
(§2) MDZ acted as a nested control in the evaluation of the endogenous urinary markers, and it was administered both orally (1.5 mg) and intravenously (i.v.; 1.0 mg). Participants were all treated the same way for the baseline and randomly split into 3 arms of 8–10 individuals each to evaluate the effect of the inhibitors. […] MDZ pharmacokinetic (PK) profiling and biomarker sampling was also conducted after the washout period and at the end of the study to determine whether enzyme activity returned to baseline levels. The subjects were their control. Treatment, washout and end of study values were compared with values at baseline.
(§3) Plasma concentrations of MDZ and its metabolite 1′-OH-MDZ were analysed using a validated LC-MS/MS method. Plasma samples were extracted using protein precipitation, where 300 µL of acetonitrile (ACN) containing 500 ng/mL diazepam as an internal standard (IS) was added to 100 µL of plasma. The mixture was then vortexed for 10 min, followed by centrifugation at 10,000× g for 5 min at a temperature of 4 °C. The supernatant was collected, and 5 µL were injected into the LC-MS/MS for analysis.
(§4) The mobile phase consisted of 10 mM ammonium formate in 5% methanol (MeOH) (A) and ACN (B). […] The column temperature was maintained at 40 °C. MDZ and 1′-OH-MDZ were detected on a Sciex 3200 mass spectrometer with a turbo ion spray interphase operated in positive ion mode at 5500 V, a temperature of 5000 °C; GS1 and GS2 at 50 and 60 psi, respectively; and a curtain gas flow of 25 psi. […] The quantification of the MDZ and 1′-OH-MDZ was performed using the Analyst software (version 1.2; Applied Biosystems).
(§5) Standard non-compartmental pharmacokinetic (PK) analysis was performed with the WinNolin program, version 4.1 (Pharsight Corp, Mountain View, CA, USA), using the linear up logarithmic down trapezoidal method. The plasma parameters that were assessed and used for the comparison with the urinary biomarker were MDZ clearance (MDZ CL) and the area under the plasma concentration-time curve (AUC) from zero to infinity (AUC0–inf) of MDZ. More PK parameters were evaluated for MDZ and 1′-OH-MDZ.
(§6) The difference between log-transformed treatment/baseline was calculated pairwise for each subject, as well as for their 90% confidence intervals (CIs). These differences and CIs were anti-log-transformed back for reporting purposes. The same analysis was performed for MDZ clearance and AUC0-inf before and after treatment for comparison.
(§7) The pharmacokinetic (PK) parameters of MDZ were performed by standard noncompartmental
(§8) methods using the WinNolin program, version 4.1 (Pharsight Corp, Mountain View, CA, USA).
(§9) were plotted as graphs of midazolam or 1-OH-midazolam concentration vs. time.

CYP3A [2] = settings: human, in vivo, iv
Description: as §1, §2, §3, §4, §5, §6, §7, §8, §9

CYP3A [3] = assay: Oral MDZ (1.5 mg p.o.) plasma pharmacokinetics (MDZ and 1′-OH-MDZ) alone and after repeated inhibitor administration; settings: for 1’-OH-MDZ AUC0– (zero to infinity), MDZ alone / 1’-OH-MDZ AUClast, MDZ alone / 1’-OH-MDZ Cmax, MDZ alone / 1’-OH-MDZ T1/2, MDZ alone / 1’-OH-MDZ Tmax, MDZ alone / MDZ CL, MDZ alone: MDZ 1.5 mg p.o., geometric mean (90% CI)
Description: as §1, §2, §3, §4, §5, §6, §7, §8, §9

CYP3A [4] = assay: Intravenous MDZ (1.0 mg i.v.) plasma pharmacokinetics (MDZ and 1′-OH-MDZ) alone and after repeated inhibitor administration; settings: for 1’-OH-MDZ AUC0– (zero to infinity), MDZ alone / 1’-OH-MDZ AUClast, MDZ alone / 1’-OH-MDZ Cmax, MDZ alone / 1’-OH-MDZ T1/2, MDZ alone / 1’-OH-MDZ Tmax, MDZ alone: MDZ 1 mg i.v., geometric mean (90% CI)
Description: as §1, §2, §3, §4, §5, §6, §7, §8, §9

CYP3A [5] = system: CYP3A
Description: as §1, §2
Sample preparations for the analysis of 1β-OH-DCA and ToDCA in human urine were performed using a previously described method but without acid solvolysis [15, 20]. In brief, an aliquot of 50 µL of a 0.1 M Tris HCL buffer (pH 5) containing a mixture of hydrolysis enzymes (100 U/mL choloylglycine hydrolase, 200 µL/mL β-glucuronidase/arylsulfatase, and 100 U/mL sulfatase) was added to 50 µL of urine, followed by adding 50 µL of an aqueous solution containing 1 µM of (D4)-DCA and (D4)-1β-OH-DCA as IS. The mixture was incubated overnight at 37 °C at a shaking speed of 500 rpm for enzymatic hydrolysis of glucuronides, sulfates, and amino acid conjugates. The reaction mixture was then quenched with a 300 µL ACN-MeOH (1:1, v/v) solution followed by centrifugation at 4000× g, 4 °C for 20 min. The supernatant was separated and diluted with an equal volume of water for ultra-high-performance liquid chromatography-high resolution mass spectrometry (UPLC-HRMS) analysis. […]
References containing 10 µM G-DCA, T-DCA, G-1β-OH-DCA, T-1β-OH-DCA, CDCA-24-G, and DCA-3-S were also prepared in stripped urine and subjected to enzymatic hydrolysis to monitor the efficiency of enzymatic deconjugation. […] Therefore, the concentrations of DCA-3-S were also determined in urine and combined with free DCA to represent the total concentration of DCA, i.e., ToDCA. […]

CYP3A [6] = settings: ITZ 200 mg od for 6 days; cited from earlier work
[7] = Oral MDZ (1.5 mg p.o.) plasma pharmacokinetics (MDZ and 1′-OH-MDZ) alone and after repeated inhibitor administration; settings: human, in vivo, po, 1.5 mg; for AUC: MDZ AUC0– (zero to infinity); for AUC / AUC(0-t) / Cmax / Tmax: MDZ alone; for AUC / AUC(0-t) / Cmax / half-life / Tmax: MDZ 1.5 mg p.o., geometric mean (90% CI); for AUC(0-t): MDZ AUClast; for Cmax: MDZ Cmax; for half-life: MDZ T1/2, MDZ alone; for Tmax: MDZ Tmax; for AUC(0-inf): Oral MDZ AUC0-inf, Baseline, MDZ 1.5 mg p.o. before inhibitor, geometric mean (range)
Description: as §1, §2, §3, §4, §5, §6, §7, §8, §9

[8] = Intravenous MDZ (1.0 mg i.v.) plasma pharmacokinetics (MDZ and 1′-OH-MDZ) alone and after repeated inhibitor administration; settings: human, in vivo, iv, 1 mg; for AUC: MDZ AUC0– (zero to infinity); for AUC(0-t): MDZ AUClast; for Cmax: MDZ Cmax; for half-life: MDZ T1/2, MDZ alone; for Tmax: MDZ Tmax; for AUC(0-inf): i.v. MDZ AUC0-inf
Description: as §1, §2, §3, §4, §5, §6, §7, §8, §9

[9] = repeated administration (APZ 1 mg od)
[10] = MDZ alone, MDZ 1 mg i.v., APZ arm (Table S1), geometric mean (90% CI)
[11] = MDZ alone, MDZ 1 mg i.v., FKZ arm (Table S2), geometric mean (90% CI)
[12] = MDZ alone, MDZ 1 mg i.v., ITZ arm (Table S3), geometric mean (90% CI)

OC(Cn1cncn1)(Cn1cncn1)c1ccc(F)cc1F [FKZ, fluconazole]
1’-OH-MDZ T1/2, MDZ + inhibitor (CYP3A [1]; po): 1.71 (1 – 2.89) h | 1’-OH-MDZ Tmax, MDZ + inhibitor (CYP3A [1]; po): 0.83 (0.68 – 1) h | 1’-OH-MDZ T1/2, MDZ + inhibitor (CYP3A [2]): 2.25 (1.56 – 3.23) h | 1’-OH-MDZ Tmax, MDZ + inhibitor (CYP3A [2]): 0.70 (0.59 – 0.83) h

OCc1ncc2n1-c1ccc(Cl)cc1C(c1ccccc1F)=NC2 [1’-OH-MDZ, 1′-hydroxymidazolam]
1’-OH-MDZ AUC0– (zero to infinity), MDZ alone (CYP3A [3]; APZ arm (Table S1)): 10.56 (6.77–16.48) ng·h/mL | 1’-OH-MDZ AUClast, MDZ alone (CYP3A [3]; APZ arm (Table S1)): 8.23 (6.15–11.02) ng·h/mL | 1’-OH-MDZ Cmax, MDZ alone (CYP3A [3]; APZ arm (Table S1)): 2.60 (2.13–3.18) ng/mL | 1’-OH-MDZ T1/2, MDZ alone (CYP3A [3]; APZ arm (Table S1)): 2.54 (1.26–5.09) h | 1’-OH-MDZ Tmax, MDZ alone (CYP3A [3]; APZ arm (Table S1)): 0.77 (0.65–0.91) h | 1’-OH-MDZ AUC0– (zero to infinity), MDZ alone (CYP3A [3]; FKZ arm (Table S2)): 6.73 (3.77 – 12.01) ng·h/ml | 1’-OH-MDZ AUClast, MDZ alone (CYP3A [3]; FKZ arm (Table S2)): 6.56 (3.6 – 11.94) ng·h/ml | 1’-OH-MDZ Cmax, MDZ alone (CYP3A [3]; FKZ arm (Table S2)): 2.81 (1.61 – 4.92) ng/ml | 1’-OH-MDZ T1/2, MDZ alone (CYP3A [3]; FKZ arm (Table S2)): 1.99 (1.32 – 3.0) h | 1’-OH-MDZ Tmax, MDZ alone (CYP3A [3]; FKZ arm (Table S2)): 0.83 (0.56 – 1.21) h | 1’-OH-MDZ AUC0– (zero to infinity), MDZ alone (CYP3A [3]; ITZ arm (Table S3)): 4.57 (3.04 – 6.88) ng·h/ml | 1’-OH-MDZ AUClast, MDZ alone (CYP3A [3]; ITZ arm (Table S3)): 4.22 (2.8 -6.36) ng·h/ml | 1’-OH-MDZ Cmax, MDZ alone (CYP3A [3]; ITZ arm (Table S3)): 2.29 (1.64 – 3.19) ng/ml | 1’-OH-MDZ T1/2, MDZ alone (CYP3A [3]; ITZ arm (Table S3)): 1.34 (1.05 -1.7) h | 1’-OH-MDZ Tmax, MDZ alone (CYP3A [3]; ITZ arm (Table S3)): 0.71 (0.63 – 0.80) h | 1’-OH-MDZ AUC0– (zero to infinity), MDZ alone (CYP3A [4]; APZ arm (Table S1)): 4.49 (2.12–9.50) ng·h/mL | 1’-OH-MDZ AUClast, MDZ alone (CYP3A [4]; APZ arm (Table S1)): 2.54 (1.49–4.35) ng·h/ml | 1’-OH-MDZ Cmax, MDZ alone (CYP3A [4]; APZ arm (Table S1)): 1.24 (1.02–1.50) ng/mL | 1’-OH-MDZ AUC0– (zero to infinity), MDZ alone (CYP3A [4]; FKZ arm (Table S2)): 3.31 (1.92 – 5.72) ng·h/ml | 1’-OH-MDZ AUClast, MDZ alone (CYP3A [4]; FKZ arm (Table S2)): 2.56 (1.65 - 3.96) ng·h/ml | 1’-OH-MDZ Cmax, MDZ alone (CYP3A [4]; FKZ arm (Table S2)): 1.09 (0.76 – 1.56) ng/ml | 1’-OH-MDZ T1/2, MDZ alone (CYP3A [4]; FKZ arm (Table S2)): 2.30 (1.44 -3.65) h | 1’-OH-MDZ Tmax, MDZ alone (CYP3A [4]; FKZ arm (Table S2)): 0.79 (0.69 – 0.90) h | 1’-OH-MDZ AUC0– (zero to infinity), MDZ alone (CYP3A [4]; ITZ arm (Table S3)): 2.26 (1.5 – 3.41) ng·h/ml | 1’-OH-MDZ AUClast, MDZ alone (CYP3A [4]; ITZ arm (Table S3)): 2.00 (1.41 – 3.01) ng·h/ml | 1’-OH-MDZ Cmax, MDZ alone (CYP3A [4]; ITZ arm (Table S3)): 1.09 (0.87 – 1.35) ng/ml | 1’-OH-MDZ T1/2, MDZ alone (CYP3A [4]; ITZ arm (Table S3)): 1.25 (0.8 – 1.95) h | 1’-OH-MDZ Tmax, MDZ alone (CYP3A [4]; ITZ arm (Table S3)): 0.79 (0.69 -0.90) h

Cc1nnc2n1-c1ccc(Cl)cc1C(c1ccccc1)=NC2 [APZ, alprazolam]
effect on 1β-OH-DCA/ToDCA UMR (in words) (CYP3A [5]; [9]): No inhibition; also recorded: no significant effect | effect on MDZ PK parameters (in words) (CYP3A [3]; [9]): no significant effect

CCC(C)n1ncn(-c2ccc(N3CCN(c4ccc(OCC5COC(Cn6cncn6)(c6ccc(Cl)cc6Cl)O5)cc4)CC3)cc2)c1=O (stereo not drawn) [ITZ, itraconazole]
time after completion of treatment at which 1β-OH-DCA/ToDCA ratio was fully restored to baseline (CYP3A [5]; after ITZ 100 mg od for 6 days): nine | Oral MDZ CL, Treatment/Baseline (90%CI) (CYP3A [1]): 0.30 ** (0.18–0.47) | decrease of oral MDZ CL from baseline (CYP3A [1]): 70% | i.v. MDZ CL, Treatment/Baseline (90%CI) (CYP3A [2]): 0.44 * (0.26–0.73) | fold increase in oral MDZ AUC (CYP3A [6]): 6.6 fold | reduced oral MDZ clearance (CYP3A [6]): 85%

Cc1ncc2n1-c1ccc(Cl)cc1C(c1ccccc1F)=NC2 [MDZ, midazolam]
AUC ([7]; APZ arm (Table S1)): 0.0106 µg·h/mL | AUC ([7]; FKZ arm (Table S2)): 0.0194 µg·h/mL | AUC ([7]; ITZ arm (Table S3)): 0.00964 µg·h/mL | AUC(0-t) ([7]; APZ arm (Table S1)): 0.0104 µg·h/mL | AUC(0-t) ([7]; FKZ arm (Table S2)): 0.0185 µg·h/mL | AUC(0-t) ([7]; ITZ arm (Table S3)): 0.00861 µg·h/mL | Cmax ([7]; APZ arm (Table S1)): 0.00413 µg/mL | Cmax ([7]; FKZ arm (Table S2)): 0.00618 µg/mL | Cmax ([7]; ITZ arm (Table S3)): 0.00486 µg/mL | half-life ([7]; APZ arm (Table S1)): 1.63 h | half-life ([7]; FKZ arm (Table S2)): 2.26 h | half-life ([7]; ITZ arm (Table S3)): 1.43 h | Tmax ([7]; APZ arm (Table S1)): 0.76 h | Tmax ([7]; FKZ arm (Table S2)): 0.79 h | Tmax ([7]; ITZ arm (Table S3)): 0.63 h | AUC(0-inf) ([7]; APZ arm): 0.0106 µg·h/mL | AUC(0-inf) ([7]; FKZ arm): 0.0227 µg·h/mL | Oral MDZ CL, Baseline (CYP3A [3]; APZ arm, MDZ 1.5 mg p.o. before inhibitor, geometric mean (range)): 59.1 (28.0–220.5) L/h | Oral MDZ CL, Baseline (CYP3A [3]; FKZ arm, MDZ 1.5 mg p.o. before inhibitor, geometric mean (range)): 59.8 (17.0–135.9) L/h | Oral MDZ CL, Baseline (CYP3A [3]; ITZ arm, MDZ 1.5 mg p.o. before inhibitor, geometric mean (range)): 126 (46.7–648.8) L/h | MDZ CL, MDZ alone (CYP3A [3]; APZ arm (Table S1)): 137.34 (101–186) L/h | MDZ CL, MDZ alone (CYP3A [3]; FKZ arm (Table S2)): 77.41 (56.44 – 106.19) L/h | MDZ CL, MDZ alone (CYP3A [3]; ITZ arm (Table S3)): 155.58 L/h | AUC(0-inf) (CYP3A [3]; human, in vivo, po, 1.5 mg, Oral MDZ AUC0-inf, Baseline, ITZ arm, MDZ 1.5 mg p.o. before inhibitor, geometric mean (range)): 0.0108 µg·h/mL | AUC [8, 10]: 0.0168 µg·h/mL | AUC [8, 11]: 0.0124 µg·h/mL | AUC [8, 12]: 0.0135 µg·h/mL | AUC(0-t) [8, 10]: 0.0166 µg·h/mL | AUC(0-t) [8, 11]: 0.012 µg·h/mL | AUC(0-t) [8, 12]: 0.0129 µg·h/mL | clearance ([8]; MDZ CL, MDZ alone, MDZ 1 mg i.v., APZ arm (Table S1), geometric mean (90% CI)): 998 mL/min | clearance ([8]; MDZ CL, MDZ alone, MDZ 1 mg i.v., FKZ arm (Table S2), geometric mean (90% CI)): 1350 mL/min | clearance ([8]; MDZ CL, MDZ alone, MDZ 1 mg i.v., ITZ arm (Table S3), geometric mean (90% CI)): 1230 mL/min | Cmax [8, 10]: 0.026 µg/mL | Cmax [8, 11]: 0.0226 µg/mL | Cmax [8, 12]: 0.025 µg/mL | half-life ([8]; MDZ 1 mg i.v., APZ arm (Table S1), geometric mean (90% CI)): 2.06 h | half-life ([8]; MDZ 1 mg i.v., FKZ arm (Table S2), geometric mean (90% CI)): 1.55 h | half-life ([8]; MDZ 1 mg i.v., ITZ arm (Table S3), geometric mean (90% CI)): 2.32 h | Tmax [8, 10]: 0.29 h | Tmax [8, 12]: 0.28 h | AUC(0-inf) ([8]; Baseline, APZ arm, MDZ 1.0 mg i.v. before inhibitor, geometric mean (range)): 0.0168 µg·h/mL | AUC(0-inf) ([8]; Baseline, FKZ arm, MDZ 1.0 mg i.v. before inhibitor, geometric mean (range)): 0.0124 µg·h/mL | clearance ([8]; i.v. MDZ CL, Baseline, APZ arm, MDZ 1.0 mg i.v. before inhibitor, geometric mean (range)): 993 mL/min | clearance ([8]; i.v. MDZ CL, Baseline, FKZ arm, MDZ 1.0 mg i.v. before inhibitor, geometric mean (range)): 1350 mL/min | AUC(0-inf) (CYP3A [4]; human, in vivo, iv, 1 mg, i.v. MDZ AUC0-inf, Baseline, ITZ arm, MDZ 1.0 mg i.v. before inhibitor, geometric mean (range)): 0.0121 µg·h/mL | clearance (CYP3A [4]; human, in vivo, iv, 1 mg, i.v. MDZ CL, Baseline, ITZ arm, MDZ 1.0 mg i.v. before inhibitor, geometric mean (range)): 1380 mL/min
